Data set [1] has as its system ovulation. The experiment in a line: Ovulation Inhibition. As to conditions: in vivo.
The test system of data set [2] is alkaline phosphatase. Nature of the data set: cells. As to conditions: read-out: EC50 (alkaline phosphatase data, printed in HPR CV-1 column).

This note sets out measurements from US7081457B2 (Wyeth, priority 1999, dated 2006).

Turning to `CC1(C)OC(=S)Nc2ccc(-c3csc(C#N)c3)cc21` [Compound 2, 4-(4,4-Dimethyl-2-thioxo-1,4-dihydro-2H1-benzo [d][1,3]oxazin-6-yl)-thiophene-2-carbonitrile], the “Ovulation Inhibition ED100” value in data set [1] is 1 mg/kg.

By EC50 is commonly meant the concentration giving half of the maximal effect. One may read the melting point as the temperature, or range, at which the solid turns liquid. As to `CC1(C)OC(=S)Nc2ccc(-c3cccc(C#N)c3)cc21` [Compound 4, 3-(4,4-Dimethyl-2-thioxo-1,4-dihydro-2H-benzo[d][1,3]oxazin-6-yl)-benzonitrile], the melting point was 236 to 237 °C. For the same molecule, the EC50 in data set [2] was 0.4 nM.

`Cc1cc(C#N)sc1-c1ccc2c(c1)C(C)(C)OC(=S)N2` [Example 16, 5-(4,4-Dimethyl-2-thioxo-1,4-dihydro-2H-3,1-benzoxazin-6-yl)-4-methylthiophene-2-carbonitrile] gave a melting point of 211 to 212 °C.

With `CC1(C)OC(=S)Nc2ccc(-c3cc(F)cc(Cl)c3)cc21` [Example 27, 6-(3-Chloro-5-fluorophenyl)-4,4-dimethyl-1,4-dihydro-2H-3,1-benzoxazine-2-thione], the melting point was in the range of 204 to 205 °C.

For `CC1(C)OC(=S)Nc2ccc(-c3cc(F)cc(C(F)(F)F)c3)cc21` [Example 43, 6-[3-Fluoro-5-(trifluoromethyl)phenyl]-4,4-dimethyl-1,4-dihydro-2H-3,1-benzoxazine-2-thione], the melting point lay in the range of 204 to 206 °C.

`CC1(C)OC(=S)Nc2ccc(-c3cc(C#N)ccc3F)cc21` [Example 47, 3-(4,4-Dimethyl-2-thioxo-1,4-dihydro-2H-3,1-benzoxazin-6-yl)-4-fluorobenzonitrile] showed a melting point of 250 to 251 °C.
